Experimental data: publication PMC10018501 (ACS Omega, 2023)
“And” between values parts separate entries of the source, which are not always exact repeats. Identical values can stand only once. Like-named read-outs stand apart in the source and are kept apart here.

Key:
[1] = molecular target: hAChE (Homo sapiens, UniProt P22303); experiment: In vitro hAChE inhibition assay; type: biochemical; settings: for selectivity index hBChE/hAChE: IC50 of hBChE/IC50 of hAChE
[2] = molecular target: hBChE (Equus caballus, UniProt P81908); experiment: In vitro hBChE inhibition assay; type: biochemical, human
Sequence of hBChE (P81908 whole entry): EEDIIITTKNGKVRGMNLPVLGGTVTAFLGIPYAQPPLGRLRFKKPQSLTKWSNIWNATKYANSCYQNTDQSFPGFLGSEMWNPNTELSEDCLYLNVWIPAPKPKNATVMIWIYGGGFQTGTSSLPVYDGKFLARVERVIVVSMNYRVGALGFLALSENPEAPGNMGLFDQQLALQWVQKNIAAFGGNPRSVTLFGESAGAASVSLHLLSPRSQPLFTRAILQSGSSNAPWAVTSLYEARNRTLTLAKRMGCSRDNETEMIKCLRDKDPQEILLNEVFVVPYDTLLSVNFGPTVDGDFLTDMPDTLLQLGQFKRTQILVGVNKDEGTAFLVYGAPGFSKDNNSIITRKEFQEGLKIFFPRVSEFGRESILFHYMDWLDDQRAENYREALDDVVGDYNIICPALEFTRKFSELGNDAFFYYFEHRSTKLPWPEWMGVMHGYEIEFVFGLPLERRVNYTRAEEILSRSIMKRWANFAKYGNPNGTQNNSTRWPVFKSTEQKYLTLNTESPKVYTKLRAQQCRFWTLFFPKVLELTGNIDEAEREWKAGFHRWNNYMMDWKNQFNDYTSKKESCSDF

[3] = molecular target: hBACE-1 (Homo sapiens, UniProt P56817); experiment: biochemical
Sequence of hBACE-1 (P56817 46-501): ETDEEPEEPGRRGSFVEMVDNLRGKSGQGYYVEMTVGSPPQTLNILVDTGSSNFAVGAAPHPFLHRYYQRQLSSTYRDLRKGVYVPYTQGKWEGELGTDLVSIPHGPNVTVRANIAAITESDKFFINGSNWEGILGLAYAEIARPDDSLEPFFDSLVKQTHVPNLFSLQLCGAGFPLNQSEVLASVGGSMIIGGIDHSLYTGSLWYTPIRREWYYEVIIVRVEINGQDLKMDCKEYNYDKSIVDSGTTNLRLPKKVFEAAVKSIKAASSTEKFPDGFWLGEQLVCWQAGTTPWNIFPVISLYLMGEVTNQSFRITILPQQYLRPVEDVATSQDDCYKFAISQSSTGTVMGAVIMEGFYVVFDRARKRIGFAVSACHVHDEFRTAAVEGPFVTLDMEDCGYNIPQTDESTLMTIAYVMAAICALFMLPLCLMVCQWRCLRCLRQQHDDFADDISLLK

[4] = molecular target: Aβ1–42 (Homo sapiens, UniProt P05067); experiment: Self-induced Aβ aggregation inhibition thioflavin T assay; type: biochemical; settings: compound 5, 10 and 20 μM; Aβ 10 μM
Sequence of Aβ1–42 (P05067 672-713): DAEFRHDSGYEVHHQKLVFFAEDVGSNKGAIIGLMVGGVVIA

[5] = test system: scopolamine-induced rat model; experiment: Scopolamine-induced Y-maze test; type: in vivo, Wistar rats; settings: SD-6 2.5, 5, 10 mg/kg p.o.; donepezil 5 mg/kg p.o.; 7 days; vs scopolamine group
[6] = test system: ICV Aβ1–42-induced rat model; experiment: Aβ-induced Morris water maze test; settings: SD-6 10 mg/kg, donepezil 5 mg/kg, orally 9 days; vs Aβ group
[7] = molecular target: PAS-AChE (hAChE-PAS region) (Homo sapiens, UniProt P22303); experiment: Propidium iodide displacement assay; type: binding
Sequence of PAS-AChE (hAChE-PAS region) (P22303 32-617 isoform P22303-2 limits assumed): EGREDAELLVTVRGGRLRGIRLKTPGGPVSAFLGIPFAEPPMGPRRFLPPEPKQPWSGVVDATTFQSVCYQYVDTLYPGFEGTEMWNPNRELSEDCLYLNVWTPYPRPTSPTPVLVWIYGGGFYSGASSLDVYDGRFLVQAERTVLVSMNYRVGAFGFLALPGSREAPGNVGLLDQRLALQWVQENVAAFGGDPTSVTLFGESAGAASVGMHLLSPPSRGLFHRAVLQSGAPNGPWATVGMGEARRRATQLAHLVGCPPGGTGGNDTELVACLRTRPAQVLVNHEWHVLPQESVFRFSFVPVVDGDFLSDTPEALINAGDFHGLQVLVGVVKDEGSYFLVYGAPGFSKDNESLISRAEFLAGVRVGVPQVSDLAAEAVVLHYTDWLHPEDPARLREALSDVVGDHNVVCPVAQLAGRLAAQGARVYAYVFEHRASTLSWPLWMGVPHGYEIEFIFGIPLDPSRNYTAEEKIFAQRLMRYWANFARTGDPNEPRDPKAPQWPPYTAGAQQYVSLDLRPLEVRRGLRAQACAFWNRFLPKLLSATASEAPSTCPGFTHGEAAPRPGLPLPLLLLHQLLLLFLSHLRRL

[8] = n = 3, mean ± SEM
[9] = in vitro; settings: PAMPA, pH 7.4
[10] = test system: differentiated SH-SY5Y cells; experiment: Neurotoxicity estimation; type: cell-based; settings: 10, 20, 40 and 80 μM, 24 h
[11] = test system: nondifferentiated SH-SY5Y cells; experiment: Neuroprotective estimation; type: cell-based; settings: Homo sapiens, 24 h, read-out: cell viability
[12] = molecular target: Aβ1–42 with hAChE (Homo sapiens, UniProt P22303); experiment: hAChE-induced Aβ aggregation inhibition thioflavin T assay; type: biochemical; settings: compound 5, 10 and 20 μM; Aβ 10 μM
Sequence of Aβ1–42 with hAChE (P22303 32-588 isoform P22303-2): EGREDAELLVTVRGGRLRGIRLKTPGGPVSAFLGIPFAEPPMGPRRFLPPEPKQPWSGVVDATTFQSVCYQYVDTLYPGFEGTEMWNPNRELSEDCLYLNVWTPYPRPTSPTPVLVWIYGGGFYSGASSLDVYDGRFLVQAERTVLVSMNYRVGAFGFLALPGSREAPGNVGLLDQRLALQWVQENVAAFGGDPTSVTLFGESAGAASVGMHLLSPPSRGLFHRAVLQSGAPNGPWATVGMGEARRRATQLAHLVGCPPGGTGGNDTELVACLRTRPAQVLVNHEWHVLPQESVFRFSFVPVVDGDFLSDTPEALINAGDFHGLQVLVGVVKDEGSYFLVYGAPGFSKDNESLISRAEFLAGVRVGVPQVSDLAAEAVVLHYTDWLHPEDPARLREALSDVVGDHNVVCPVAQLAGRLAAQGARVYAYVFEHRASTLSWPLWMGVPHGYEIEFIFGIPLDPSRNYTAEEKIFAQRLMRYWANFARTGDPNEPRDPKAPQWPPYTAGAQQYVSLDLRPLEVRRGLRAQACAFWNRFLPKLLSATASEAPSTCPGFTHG

[13] = hAChE inhibitory activity (good/moderate/poor), class in words

Sequence of hAChE (P22303 32-617 isoform P22303-2 limits assumed): as the sequence (P22303 32-617 isoform P22303-2 limits assumed) above

| SMILES | IC50 ([1]; IC50 ± SEM hAChE, n = 3) [µM] | IC50 [1, 13] [µM] | IC50 [2] [µM] | IC50 [3] [µM] | IC50 ([3]; IC50 ± SEM hBACE-1, n = 3) [µM] | other results |
| --- | --- | --- | --- | --- | --- | --- |
| COc1cccc(-c2nn(CN3CCN(Cc4ccccc4)CC3)c(=S)o2)c1 [SD-12, 3-((4-Benzylpiperazin-1-yl)methyl)-5-(3-methoxyphenyl)-1,3,4-oxadiazole-2(3H)-thione] | 1.94 ± 0.024 | 1 to 2 | > 10 | 1 to 2.5 | 1.21 ± 0.016 |  |
| S=c1oc(-c2cccc(Cl)c2)nn1CN1CCN(Cc2ccccc2)CC1 [SD-7, 3-((4-Benzylpiperazin-1-yl)methyl)-5-(3-chlorophenyl)-1,3,4-oxadiazole-2(3H)-thione] | 1.42 ± 0.022 | < 1 | > 10 |  | 0.885 ± 0.013 |  |
| FC(F)(F)Oc1ccc(-c2nn(CN3CCN(Cc4ccccc4)CC3)c(=S)o2)cc1 [SD-3, 3-((4-Benzylpiperazin-1-yl)methyl)-5-(4-(trifluoromethoxy)phenyl)-1,3,4-oxadiazole-2(3H)-thione] | 1.335 ± 0.012 | 1 to 2 | > 10 | 1 to 2.5 | 1.11 ± 0.016 |  |
| COc1cc2c(cc1OC)C(=O)C(CC1CCN(Cc3ccccc3)CC1)C2 (stereo not shown) [donepezil, reference compound] |  |  |  |  |  | % Aβ aggregation inhibition, self-induced [4]: 21–37%; % spontaneous alterations [5]: significant (^b,c,dp < 0.001) increase; escape latency time (ELT) [6]: maximum decline in ELT; time spent in the platform zone [6]: significantly (^bp < 0.001) higher; total number of entries to the platform zone [6]: significantly (^bp < 0.001) different from the Aβ-treated animal group |
| Oc1ccc(-c2nn(CN3CCN(Cc4ccccc4)CC3)c(=S)o2)cc1 [SD-10, 3-((4-Benzylpiperazin-1-yl)methyl)-5-(4-hydroxyphenyl)-1,3,4-oxadiazole-2(3H)-thione] | 1.22 ± 0.013 | 1 to 2 | > 10 |  | > 5 |  |
| Oc1ccc(-c2nn(CN3CCN(Cc4ccccc4)CC3)c(=S)o2)c(O)c1 [SD-17, 3-((4-Benzylpiperazin-1-yl)methyl)-5-(2,4-dihydroxyphenyl)-1,3,4-oxadiazole-2(3H)-thione] | 1.792 ± 0.015 |  | > 10 | 1 to 2.5 | 2.15 ± 0.034 | hAChE inhibitory activity (good/moderate/poor) ([1]; class in words): moderate to poor |
| S=c1oc(-c2ccc(Cl)cc2Cl)nn1CN1CCN(Cc2ccccc2)CC1 [SD-9, 3-((4-Benzylpiperazin-1-yl)methyl)-5-(2,4-dichlorophenyl)-1,3,4-oxadiazole-2(3H)-thione] | 2.11 ± 0.037 |  | > 10 | 1 to 2.5 | 1.41 ± 0.031 | hAChE inhibitory activity (good/moderate/poor) ([1]; class in words): moderate to poor |
| S=c1oc(-c2ccc(Cl)cc2)nn1CN1CCN(Cc2ccccc2)CC1 [SD-1, 3-((4-Benzylpiperazin-1-yl)methyl)-5-(4-chlorophenyl)-1,3,4-oxadiazole-2(3H)-thione] | 1.26 ± 0.019 | 1 to 2 | > 10 |  | 0.943 ± 0.018 |  |
| Nc1ccc(-c2nn(CN3CCN(Cc4ccccc4)CC3)c(=S)o2)cc1 [SD-11, 5-(4-Aminophenyl)-3-((4-benzylpiperazin-1-yl)methyl)-1,3,4-oxadiazole-2(3H)-thione] | 1.22 ± 0.027 | 1 to 2 | > 10 |  | > 5 |  |
| COc1ccc(-c2nn(CN3CCN(Cc4ccccc4)CC3)c(=S)o2)cc1 [SD-13, 3-((4-Benzylpiperazin-1-yl)methyl)-5-(4-methoxyphenyl)-1,3,4-oxadiazole-2(3H)-thione] | 1.53 ± 0.028 | 1 to 2 | > 10 | 1 to 2.5 | 1.358 ± 0.012 |  |
| O=[N+]([O-])c1cc(-c2nn(CN3CCN(Cc4ccccc4)CC3)c(=S)o2)ccc1Cl [SD-14, 3-((4-Benzylpiperazin-1-yl)methyl)-5-(4-chloro-3-nitrophenyl)-1,3,4-oxadiazole-2(3H)-thione] | 1.14 ± 0.018 | 1 to 2 | 1.94 ± 0.033 |  | 0.806 ± 0.011 | selectivity index hBChE/hAChE [1]: 1.710; PAS-AChE propidium iodide displacement (%) ([7]; [I] = 10 μM): 19.7% and 19.773 ± 1.216%; PAS-AChE propidium iodide displacement (%) ([7]; [I] = 50 μM): 36.8% and 36.841 ± 1.069%; Pe(exp) PAMPA–BBB [8]: 4.848 10^–6 cm/s; Papp [9]: 48.58 ± 0.16 nm/s |
| S=c1oc(-c2ccccc2Br)nn1CN1CCN(Cc2ccccc2)CC1 [SD-16, 3-((4-Benzylpiperazin-1-yl)methyl)-5-(2-bromophenyl)-1,3,4-oxadiazole-2(3H)-thione] | 2.41 ± 0.027 |  | > 10 | 1 to 2.5 | 1.8 ± 0.029 | hAChE inhibitory activity (good/moderate/poor) ([1]; class in words): moderate to poor |
| O=[N+]([O-])c1ccc(-c2nn(CN3CCN(Cc4ccccc4)CC3)c(=S)o2)c([N+](=O)[O-])c1 [SD-15, 3-((4-Benzylpiperazin-1-yl)methyl)-5-(2,4-dinitrophenyl)-1,3,4-oxadiazole-2(3H)-thione] | 1.42 ± 0.023 |  | > 10 | 1 to 2.5 | 1.45 ± 0.022 | hAChE inhibitory activity (good/moderate/poor) ([1]; class in words): moderate to poor |
| FC(F)(F)c1ccc(-c2nn(CN3CCN(Cc4ccccc4)CC3)c(=S)o2)cc1 [SD-8, 3-((4-Benzylpiperazin-1-yl)methyl)-5-(4-(trifluoromethyl)phenyl)-1,3,4-oxadiazole-2(3H)-thione] | 1.32 ± 0.018 | 1 to 2 | 2.42 ± 0.041 |  | 0.701 ± 0.019 | selectivity index hBChE/hAChE [1]: 1.835; PAS-AChE propidium iodide displacement (%) ([7]; [I] = 10 μM): 21.446 ± 1.147%; PAS-AChE propidium iodide displacement (%) ([7]; [I] = 10 μM, listed as SD-08): 21.4%; PAS-AChE propidium iodide displacement (%) ([7]; [I] = 50 μM): 41.709 ± 1.271%; PAS-AChE propidium iodide displacement (%) ([7]; [I] = 50 μM, listed as SD-08): 41.7%; Pe(exp) PAMPA–BBB [8]: 5.019 10^–6 cm/s; Papp [9]: 50.19 ± 0.33 nm/s |
| O=[N+]([O-])c1ccccc1-c1nn(CN2CCN(Cc3ccccc3)CC2)c(=S)o1 [SD-5, 3-((4-Benzylpiperazin-1-yl)methyl)-5-(2-nitrophenyl)-1,3,4-oxadiazole-2(3H)-thione] | 1.89 ± 0.031 |  | > 10 | 1 to 2.5 | 1.17 ± 0.021 | hAChE inhibitory activity (good/moderate/poor) ([1]; class in words): moderate to poor |
| O=[N+]([O-])c1ccc(-c2nn(CN3CCN(Cc4ccccc4)CC3)c(=S)o2)cc1 [SD-2, 3-((4-Benzylpiperazin-1-yl)methyl)-5-(4-nitrophenyl)-1,3,4-oxadiazole-2(3H)-thione] | 1.107 ± 0.008 | 1 to 2 | > 10 |  | 0.811 ± 0.023 |  |
| N#Cc1cccc(-c2nn(CN3CCN(Cc4ccccc4)CC3)c(=S)o2)c1 [SD-4, 3-(4-((4-Benzylpiperazin-1-yl)methyl)-5-thioxo-4,5-dihydro-1,3,4-oxadiazol-2-yl)benzonitrile] | 1.077 ± 0.009 | < 1 | 1.65 ± 0.019 |  | 0.651 ± 0.014 | selectivity index hBChE/hAChE [1]: 1.534; PAS-AChE propidium iodide displacement (%) ([7]; [I] = 10 μM): 24.6% and 24.661 ± 1.421%; PAS-AChE propidium iodide displacement (%) ([7]; [I] = 50 μM): 55.1% and 55.157 ± 1.247%; neurotoxicity (MTT, cell population and morphology) [10]: non-neurotoxic; viability at 5 µM [11]: 59.1%; viability at 10 µM [11]: 71.6%; viability at 20 µM [11]: 82.5%; % Aβ aggregation inhibition, self-induced [4]: 20–61%; % Aβ aggregation inhibition, hAChE-induced [12]: 38–79%; Pe(exp) PAMPA–BBB [8]: 6.127 10^–6 cm/s; Papp [9]: 61.27 ± 0.19 nm/s |
